Laboratory results taken from article PMC11432405, “Development of Novel Alaninamide Derivatives with Anticonvulsant Activity and Favorable Safety Profiles in Animal Models” (International Journal of Molecular Sciences, 2024).
Like-named read-outs stand apart in the source and are kept apart here.

How the values were obtained:
[1] = system: maximal electroshock (MES) seizures; assay: maximal electroshock seizure (MES) test; assay type: in vivo, mice; conditions: mice i.p.; for responders at 100 mg/kg / ED50: Mus musculus, ip; for ED50: TPE 0.5 h, 95% confidence interval in parentheses
Source text: Epilepsy is a multifaceted disorder with often unclear etiology, making it challenging to pinpoint a specific receptor or transporter as the definitive target. Consequently, the discovery of ASMs deviates from the traditional drug development pathway, which typically involves designing a new molecule, docking it with a specific biological target, and performing chemical synthesis, followed by in vitro assays. Instead, numerous animal seizure models, which mirror various types of human epileptic seizures, are initially employed in the process of new ASM discovery. This approach has been instrumental in the identification and introduction into clinical practice of all currently used ASMs and continues to be a cornerstone in the preclinical development of new anticonvulsants. The primary justification for prioritizing in vivo screening over in vitro binding and functional studies is the complex and often not fully elucidated mechanisms of action of known ASMs. This approach also facilitates the discovery of compounds with novel, previously undefined pharmacodynamic properties. In light of this, we evaluated all compounds obtained in the current studies using the MES test, which remains one of the most valuable preclinical screening models for tonic-clonic seizures, as well as partial convulsions with or without secondary generalization in humans. This test allows for a comprehensive assessment of the anticonvulsant efficacy of new ASM candidates and is considered highly relevant for predicting their therapeutic efficacy in human epilepsy. The MES test was carried out in mice following the intraperitoneal (i.p.) administration of a screening dose of 100 mg/kg in a group consisting of four animals. The efficacy of the compounds synthesized was evaluated at 0.5 h pretreatment time.
Fresh solutions were prepared daily for each experimentation session.
Each group consisted of six animals.

[2] = target: T1, human recombinant MAO-B (Homo sapiens, UniProt P27338); assay: fluorometric monoamine oxidase B inhibition assay; assay type: biochemical; conditions: for % inhibition MAO-B (1 µM): mean of two independent experiments; for inhibition at 1 µM: read-out: % inhibition MAO-B (1 µM), mean of two independent experiments
T1 construct: purchased Sigma Aldrich
T1 sequence (P27338 1-520): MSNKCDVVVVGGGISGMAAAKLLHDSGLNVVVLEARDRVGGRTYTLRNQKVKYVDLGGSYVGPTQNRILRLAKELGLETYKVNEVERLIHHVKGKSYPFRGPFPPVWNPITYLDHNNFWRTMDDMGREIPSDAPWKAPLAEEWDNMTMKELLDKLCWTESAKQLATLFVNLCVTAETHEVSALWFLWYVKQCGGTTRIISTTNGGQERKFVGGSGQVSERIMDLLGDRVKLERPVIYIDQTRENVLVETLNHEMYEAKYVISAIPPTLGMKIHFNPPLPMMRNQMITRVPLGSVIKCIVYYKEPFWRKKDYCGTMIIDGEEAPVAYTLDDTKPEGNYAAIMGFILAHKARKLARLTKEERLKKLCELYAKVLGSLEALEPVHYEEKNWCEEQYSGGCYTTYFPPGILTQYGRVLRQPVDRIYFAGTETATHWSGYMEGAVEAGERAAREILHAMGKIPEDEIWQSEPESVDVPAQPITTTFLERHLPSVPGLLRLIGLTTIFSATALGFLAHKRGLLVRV

[3] = system: 6 Hz (32 mA) seizures; assay: 6 Hz (32 mA) psychomotor seizure model; conditions: for protection (efficacy) in the 6 Hz (32 mA) screening / 6 Hz (32 mA) test: number of mice protected / number of mice tested: mice i.p.; for protection (efficacy) in the 6 Hz (32 mA) screening: 100 mg/kg, four mice; for protection (efficacy) in the 6 Hz (32 mA) screening / ED50 / responders at 100 mg/kg: 0.5 h; for 6 Hz (32 mA) test: number of mice protected / number of mice tested: dose of 100 mg/kg, pretreatment time 0.5 h; for ED50 / responders at 100 mg/kg: Mus musculus, ip; for ED50: read-out: ED50 6 Hz (32 mA), mice i.p., TPE 0.5 h, 95% confidence interval in parentheses; for responders at 100 mg/kg: read-out: protection (efficacy) in the 6 Hz (32 mA) screening;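 for all read-outs here: adult male albino Swiss CD-1 mice, each used once, with compounds suspended in 1% Tween 80 in water as vehicle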
[4] = rotarod test (acute neurological toxicity, motor coordination); assay type: in vivo; conditions: male, CD-1 (albino Swiss), mouse, in vivo, ip, mice i.p.
Protocol: The protective indexes (PIs) were then calculated as the ratio of TD50 to ED50 (PI = TD50/ED50), providing an assessment of the therapeutic window for each compound.

[5] = system: maximal electroshock (MES) seizures; conditions: cited from earlier work
[6] = system: 6 Hz (32 mA) seizures; conditions: cited from earlier work
[7] = system: 6 Hz (44 mA) seizures; conditions: cited from earlier work
[8] = dose of 100 mg/kg, pretreatment time 0.5 h
[9] = 100 mg/kg, 0.5 h, four mice, read-out: protection (efficacy) in the MES screening
[10] = dose of 100 mg/kg, pretreatment time 0.5 h, read-out: MES test: number of mice protected / number of mice tested (converted)

SMILES	responders at 100 mg/kg [1, 9] [%]	responders at 100 mg/kg [1, 10] [%]	inhibition at 1 µM [2] [%]	melting point [°C]	responders at 100 mg/kg [3] [%]	other results
CC(C(=O)NCc1ccc(OCc2ccccc2F)cc1)N1C(=O)CCC1=O (stereo not drawn) [Compound 6, 2-(2,5-dioxopyrrolidin-1-yl)-N-(4-((2-fluorobenzyl)oxy)benzyl)propanamide]	–	–	–	–	–	protection (efficacy) in the MES screening ([1]; 100 mg/kg, 0.5 h, four mice): 100%; MES test: number of mice protected / number of mice tested [1, 8]: 4/4; % inhibition MAO-B (1 µM) [2]: 0%; protection (efficacy) in the 6 Hz (32 mA) screening [3]: 100%; 6 Hz (32 mA) test: number of mice protected / number of mice tested [3]: 4/4
CC(C(=O)NCc1ccc(OCc2ccc(F)cc2)cc1)N1C(=O)CCC1=O (stereo not drawn) [Compound 8, 2-(2,5-dioxopyrrolidin-1-yl)-N-(4-((4-fluorobenzyl)oxy)benzyl)propanamide]	–	–	–	–	–	protection (efficacy) in the MES screening ([1]; 100 mg/kg, 0.5 h, four mice): 50%; % inhibition MAO-B (1 µM) [2]: 0%; protection (efficacy) in the 6 Hz (32 mA) screening [3]: 50%
CC(C(=O)NCc1ccc(OCc2ccc(Cl)cc2)cc1)N1C(=O)CCC1=O (stereo not drawn) [Compound 11, N-(4-((4-chlorobenzyl)oxy)benzyl)-2-(2,5-dioxopyrrolidin-1-yl)propanamide]	–	–	–	–	–	protection (efficacy) in the MES screening ([1]; 100 mg/kg, 0.5 h, four mice): ≤ 25%; MES test: number of mice protected / number of mice tested [1, 8]: 0/4; % inhibition MAO-B (1 µM) [2]: 0%; protection (efficacy) in the 6 Hz (32 mA) screening [3]: 25%; 6 Hz (32 mA) test: number of mice protected / number of mice tested [3]: 1/4
CC(C(=O)NCc1ccc(OCc2ccccc2C(F)(F)F)cc1)N1C(=O)CCC1=O (stereo not drawn) [Compound 12, 2-(2,5-dioxopyrrolidin-1-yl)-N-(4-((2-(trifluoromethyl)benzyl)oxy)benzyl)propanamide]	100	100	0	122.9 to 123.4	75	ED50 [1]: 46.2 mg/kg; TD50 at 0.5 h [4]: > 300 mg/kg; ED50 [3]: 52.7 mg/kg
CC(C(=O)NCc1ccc(OCc2cccc(C(F)(F)F)c2)cc1)N1C(=O)CCC1=O (stereo not drawn) [Compound 13, 2-(2,5-dioxopyrrolidin-1-yl)-N-(4-((3-(trifluoromethyl)benzyl)oxy)benzyl)propanamide]	100	100	0	–	100	ED50 [1]: 69.7 mg/kg; TD50 at 0.5 h [4]: > 300 mg/kg; ED50 [3]: 67.9 mg/kg
CC(C(=O)NCc1ccc(OCc2ccc(C(F)(F)F)cc2)cc1)N1C(=O)CCC1=O (stereo not drawn) [Compound 14, 2-(2,5-dioxopyrrolidin-1-yl)-N-(4-((4-(trifluoromethyl)benzyl)oxy)benzyl)propanamide]	50	50	0	–	50	–
CC(C(=O)NCc1ccc(OCc2ccccc2OC(F)(F)F)cc1)N1C(=O)CCC1=O (stereo not drawn) [Compound 15, 2-(2,5-dioxopyrrolidin-1-yl)-N-(4-((2-(trifluoromethoxy)benzyl)oxy)benzyl)propanamide]	50	50	0	110.5 to 111.2	25	–
CC(C(=O)NCc1ccc(OCc2cccc(OC(F)(F)F)c2)cc1)N1C(=O)CCC1=O (stereo not drawn) [Compound 16, 2-(2,5-dioxopyrrolidin-1-yl)-N-(4-((3-(trifluoromethoxy)benzyl)oxy)benzyl)propanamide]	100	100	31	112.2 to 112.9	50	ED50 [1]: 40.5 mg/kg; TD50 at 0.5 h [4]: > 300 mg/kg; ED50 [3]: 63 mg/kg
Cc1ccccc1COc1ccc(CNC(=O)C(C)N2C(=O)CCC2=O)cc1 (stereo not drawn) [Compound 18, 2-(2,5-dioxopyrrolidin-1-yl)-N-(4-((2-methylbenzyl)oxy)benzyl)propanamide]	75	75	0	126.1 to 126.8	75	ED50 [1]: 89.2 mg/kg; TD50 at 0.5 h [4]: > 300 mg/kg; ED50 [3]: 57.7 mg/kg
Cc1cccc(COc2ccc(CNC(=O)C(C)N3C(=O)CCC3=O)cc2)c1 (stereo not drawn) [Compound 19, 2-(2,5-dioxopyrrolidin-1-yl)-N-(4-((3-methylbenzyl)oxy)benzyl)propanamide]	≤ 25	25	0	–	25	–
Cc1ccc(COc2ccc(CNC(=O)C(C)N3C(=O)CCC3=O)cc2)cc1 (stereo not drawn) [Compound 20, 2-(2,5-dioxopyrrolidin-1-yl)-N-(4-((4-methylbenzyl)oxy)benzyl)propanamide]	≤ 25	0	0	–	–	–
CC(C)(C(=O)NCc1ccc(OCc2ccccc2)cc1)N1C(=O)CCC1=O [Compound 21, N-(4-(benzyloxy)benzyl)-2-(2,5-dioxopyrrolidin-1-yl)-2-methylpropanamide]	≤ 25	25	0	170.3 to 171.2	–	–
CC(C(=O)NCc1cccc(OCc2ccccc2)c1)N1C(=O)CCC1=O (stereo not drawn) [Compound 22, N-(3-(benzyloxy)benzyl)-2-(2,5-dioxopyrrolidin-1-yl)propanamide]	≤ 25	25	0	105.3 to 106.1	–	–
CC(C(=O)NCc1ccccc1OCc1ccccc1)N1C(=O)CCC1=O (stereo not drawn) [Compound 23, N-(2-(benzyloxy)benzyl)-2-(2,5-dioxopyrrolidin-1-yl)propanamide]	≤ 25	25	0	–	–	–
CC(C(=O)NCc1ccc(OCc2ccccc2)cc1)N1CCCC1=O (stereo not drawn) [Compound 36, N-(4-(benzyloxy)benzyl)-2-(2-oxopyrrolidin-1-yl)propanamide]	–	100	0	110.5 to 110.9	25	–
CC(C(=O)NCc1ccc(OCc2ccccc2C(F)(F)F)cc1)N1CCCC1=O (stereo not drawn) [Compound 37, 2-(2-oxopyrrolidin-1-yl)-N-(4-((2-(trifluoromethyl)benzyl)oxy)benzyl)propanamide]	–	100	0	121.8 to 122.5	50	–
CC(C(=O)NCc1ccc(OCc2cccc(C(F)(F)F)c2)cc1)N1CCCC1=O (stereo not drawn) [Compound 38, 2-(2-oxopyrrolidin-1-yl)-N-(4-((3-(trifluoromethyl)benzyl)oxy)benzyl)propanamide]	–	100	2	123.5 to 123.8	75	ED50 [1]: 54.8 mg/kg; TD50 at 0.5 h [4]: > 300 mg/kg; ED50 [3]: 65.3 mg/kg
COC[C@@H](NC(C)=O)C(=O)NCc1ccccc1 [LCS, lacosamide]	–	–	–	–	–	PI (TD50/ED50) MES ([5]; TD50 rotarod / ED50 MES): 5.0; ED50 MES ([5]; mice i.p., TPE 0.5 h (LEV 1.0 h), same conditions): 9.2 (8.5–10.0) mg/kg; PI (TD50/ED50) 6 Hz ([6]; TD50 rotarod / ED50 6 Hz (32 mA)): 8.8; ED50 6 Hz (32 mA) ([6]; mouse, in vivo, ip): 5.3 (3.5–7.8) mg/kg; PI (TD50/ED50) 6 Hz (44 mA) ([7]; TD50 rotarod / ED50 6 Hz (44 mA)): 6.7; ED50 6 Hz (44 mA) ([7]; mice i.p., TPE 0.5 h (LEV 1.0 h)): 6.9 (5.4–8.6) mg/kg
C[C@H](NCc1ccc(OCc2cccc(F)c2)cc1)C(N)=O [SAF, safinamide]	–	–	–	–	–	ED50 in the MES model ([5]; mice): 4.1 mg/kg
